Patent US10508120B2, “TYK2 inhibitors and uses thereof” (Nimbus Lakshmi, Inc., priority 2017, dated 2019)

What was measured:
[1] = target: human TYK2 (JH2domain-pseudokinase) (Homo sapiens (Human), UniProt P29597); assay: TYK2 JH2 Domain Binding Assay (KINOMEscan)
Method in brief: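 Pseudokinase domain binding was measured by qPCR of tagged, bead-retained kinase after 1 h room-temperature competition, with 0.9% DMSO and compound up to 30,000 nM in 3-fold steps. Hill-equation Kd, duplicate.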

Tyk2 kinase domain (DH1) = Tyk2 kinase domain (DH1) (Homo sapiens (Human), UniProt P29597); assay: Tyk2 Radioactive Kinase Assay; assay type: biochemical; conditions: compound at 10 μM, ATP 10 μM; for inhibition at 10 µM: read-out: Tyk2 JH1% Inhibition @ 10 μM
Sequence of Tyk2 kinase domain (DH1) (P29597 897-1176): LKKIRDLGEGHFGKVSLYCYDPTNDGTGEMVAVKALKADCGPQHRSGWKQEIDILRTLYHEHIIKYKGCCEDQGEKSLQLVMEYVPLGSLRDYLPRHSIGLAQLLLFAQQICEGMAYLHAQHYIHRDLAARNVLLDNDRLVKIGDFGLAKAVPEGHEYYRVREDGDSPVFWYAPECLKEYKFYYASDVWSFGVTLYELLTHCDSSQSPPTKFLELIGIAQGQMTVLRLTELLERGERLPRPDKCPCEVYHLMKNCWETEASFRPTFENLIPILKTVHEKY
Method in brief: (§1)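 Single-point screen: 10 μM test compound, radioactive kinase read-out, percent inhibition reported for each kinase domain.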

JAK2 kinase domain (JH1) = JAK2 kinase domain (JH1) (Homo sapiens (Human), UniProt O60674); assay: JAK2 Radioactive Kinase Assay; assay type: biochemical; conditions: compound at 10 μM, ATP 10 μM; for inhibition at 10 µM: read-out: JAK2 JH1% Inhibition @ 10 μM
Sequence of JAK2 kinase domain (JH1) (O60674 849-1124): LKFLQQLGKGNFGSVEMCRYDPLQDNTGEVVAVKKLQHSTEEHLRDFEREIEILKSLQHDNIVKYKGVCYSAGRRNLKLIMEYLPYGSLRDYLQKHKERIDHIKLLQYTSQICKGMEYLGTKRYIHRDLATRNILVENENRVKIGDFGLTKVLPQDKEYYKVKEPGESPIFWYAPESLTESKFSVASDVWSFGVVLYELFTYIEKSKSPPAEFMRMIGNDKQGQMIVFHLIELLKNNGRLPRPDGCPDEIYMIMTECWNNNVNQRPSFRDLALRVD
Method in brief: as §1

[2] = target: Tyk2/JAK2 (heterodimeric complex) (Homo sapiens (Human), UniProt P29597); assay: IL-12 Induced pSTAT4 in Human PBMC; assay type: cell-based; conditions: 1.7 ng/mL IL-12
Sequence of Tyk2/JAK2 (heterodimeric complex) (P29597 whole entry, other chains not shown): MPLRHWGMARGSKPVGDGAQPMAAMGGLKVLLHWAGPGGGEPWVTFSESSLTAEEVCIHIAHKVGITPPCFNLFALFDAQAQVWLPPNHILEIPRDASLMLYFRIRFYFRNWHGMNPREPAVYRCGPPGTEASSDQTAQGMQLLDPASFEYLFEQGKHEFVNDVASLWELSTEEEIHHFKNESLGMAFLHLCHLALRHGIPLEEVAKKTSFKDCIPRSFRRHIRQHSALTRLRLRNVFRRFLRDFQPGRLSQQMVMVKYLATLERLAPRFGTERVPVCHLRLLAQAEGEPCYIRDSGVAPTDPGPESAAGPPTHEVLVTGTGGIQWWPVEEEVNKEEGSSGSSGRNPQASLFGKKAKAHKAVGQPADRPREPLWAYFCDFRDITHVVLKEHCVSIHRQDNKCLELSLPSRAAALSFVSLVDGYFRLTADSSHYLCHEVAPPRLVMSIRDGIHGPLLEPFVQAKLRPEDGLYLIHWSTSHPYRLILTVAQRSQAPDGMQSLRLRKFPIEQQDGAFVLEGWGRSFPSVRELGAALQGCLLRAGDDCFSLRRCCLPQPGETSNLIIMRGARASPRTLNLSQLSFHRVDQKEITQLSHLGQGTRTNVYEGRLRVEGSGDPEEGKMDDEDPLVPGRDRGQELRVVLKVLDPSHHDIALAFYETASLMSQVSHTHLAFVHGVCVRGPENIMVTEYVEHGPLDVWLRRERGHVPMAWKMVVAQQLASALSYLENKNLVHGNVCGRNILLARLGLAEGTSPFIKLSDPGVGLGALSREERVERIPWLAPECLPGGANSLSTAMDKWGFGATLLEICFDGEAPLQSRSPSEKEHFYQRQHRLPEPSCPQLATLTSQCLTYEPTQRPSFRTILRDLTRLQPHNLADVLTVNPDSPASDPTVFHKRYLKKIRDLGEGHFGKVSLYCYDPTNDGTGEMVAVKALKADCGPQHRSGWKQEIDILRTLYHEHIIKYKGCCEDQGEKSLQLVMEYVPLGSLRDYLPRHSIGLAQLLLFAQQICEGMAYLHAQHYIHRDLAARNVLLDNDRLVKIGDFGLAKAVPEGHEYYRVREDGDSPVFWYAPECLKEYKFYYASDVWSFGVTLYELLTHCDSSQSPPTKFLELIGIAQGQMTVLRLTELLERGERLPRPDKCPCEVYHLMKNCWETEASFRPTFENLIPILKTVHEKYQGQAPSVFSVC
Source text: The IL-12 Induced pSTAT4 assay evaluates the inhibition of IL-12 induced STAT4 phophorylation mediated by Tyk2/JAK2 (heterodimeric complex).

[3] = target: JAK2/JAK2 homdimeric complex (Homo sapiens (Human), UniProt O60674); assay: GM-CSF Induced pSTAT5 in Human PBMC; assay type: cell-based; conditions: GM-CSF 5 ng/mL for 20 minutes, pSTAT5 by MSD, read-out: PBMC_GMCSF_pSTAT5 IC50
Sequence of JAK2/JAK2 homdimeric complex (O60674 whole entry): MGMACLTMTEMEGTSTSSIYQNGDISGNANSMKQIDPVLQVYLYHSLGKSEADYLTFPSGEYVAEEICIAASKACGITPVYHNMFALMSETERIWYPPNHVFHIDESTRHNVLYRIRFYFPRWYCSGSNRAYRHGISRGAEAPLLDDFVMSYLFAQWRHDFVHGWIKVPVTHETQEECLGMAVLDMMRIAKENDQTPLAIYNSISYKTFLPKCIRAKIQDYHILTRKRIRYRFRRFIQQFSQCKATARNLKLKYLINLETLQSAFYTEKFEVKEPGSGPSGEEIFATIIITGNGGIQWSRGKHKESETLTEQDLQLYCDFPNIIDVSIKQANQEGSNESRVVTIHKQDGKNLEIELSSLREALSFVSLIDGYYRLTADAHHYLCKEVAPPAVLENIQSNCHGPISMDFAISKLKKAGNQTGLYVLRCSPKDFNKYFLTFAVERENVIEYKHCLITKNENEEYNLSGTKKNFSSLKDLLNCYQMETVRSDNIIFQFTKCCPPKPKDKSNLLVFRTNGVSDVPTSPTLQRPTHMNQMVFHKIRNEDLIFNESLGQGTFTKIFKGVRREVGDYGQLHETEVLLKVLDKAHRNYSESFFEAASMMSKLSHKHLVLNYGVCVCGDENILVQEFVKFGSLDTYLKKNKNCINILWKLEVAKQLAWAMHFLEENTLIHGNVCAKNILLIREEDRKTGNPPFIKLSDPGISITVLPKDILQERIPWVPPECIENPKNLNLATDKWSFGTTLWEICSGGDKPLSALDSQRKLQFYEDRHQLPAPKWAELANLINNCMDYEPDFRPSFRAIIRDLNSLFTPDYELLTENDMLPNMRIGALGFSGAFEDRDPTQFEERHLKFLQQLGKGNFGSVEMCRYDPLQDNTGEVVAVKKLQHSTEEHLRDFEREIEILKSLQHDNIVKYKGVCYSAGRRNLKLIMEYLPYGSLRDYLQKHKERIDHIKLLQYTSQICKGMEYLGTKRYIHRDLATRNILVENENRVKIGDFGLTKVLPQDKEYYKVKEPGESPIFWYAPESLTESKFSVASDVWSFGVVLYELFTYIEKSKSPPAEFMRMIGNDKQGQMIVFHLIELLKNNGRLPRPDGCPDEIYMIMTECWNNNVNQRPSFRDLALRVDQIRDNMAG
Sequence of JAK2/JAK2 homdimeric complex (P32927 17-897 partner): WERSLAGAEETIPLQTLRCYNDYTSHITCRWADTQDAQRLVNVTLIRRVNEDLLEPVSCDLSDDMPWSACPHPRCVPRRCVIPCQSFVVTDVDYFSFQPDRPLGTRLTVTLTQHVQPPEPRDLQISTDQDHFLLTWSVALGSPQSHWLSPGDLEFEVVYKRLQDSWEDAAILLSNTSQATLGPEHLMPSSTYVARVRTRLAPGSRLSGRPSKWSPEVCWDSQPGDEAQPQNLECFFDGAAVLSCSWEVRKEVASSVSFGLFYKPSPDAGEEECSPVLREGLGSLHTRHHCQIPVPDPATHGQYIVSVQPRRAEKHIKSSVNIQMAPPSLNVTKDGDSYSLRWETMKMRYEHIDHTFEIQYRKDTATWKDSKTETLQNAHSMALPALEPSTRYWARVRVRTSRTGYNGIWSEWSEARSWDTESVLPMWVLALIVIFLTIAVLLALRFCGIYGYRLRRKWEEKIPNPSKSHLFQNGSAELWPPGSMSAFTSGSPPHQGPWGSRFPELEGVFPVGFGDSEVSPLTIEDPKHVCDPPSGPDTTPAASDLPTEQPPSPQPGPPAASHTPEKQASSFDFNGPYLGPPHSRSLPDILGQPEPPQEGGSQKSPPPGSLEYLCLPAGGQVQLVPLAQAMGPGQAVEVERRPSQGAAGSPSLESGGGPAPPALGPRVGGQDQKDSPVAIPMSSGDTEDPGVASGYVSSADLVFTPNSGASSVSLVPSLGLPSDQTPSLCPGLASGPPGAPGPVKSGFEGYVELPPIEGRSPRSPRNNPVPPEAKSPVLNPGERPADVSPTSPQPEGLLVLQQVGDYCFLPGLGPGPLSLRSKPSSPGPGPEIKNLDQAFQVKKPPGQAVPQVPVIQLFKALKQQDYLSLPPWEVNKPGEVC

Sequence of human TYK2 (JH2domain-pseudokinase) (P29597 556-888): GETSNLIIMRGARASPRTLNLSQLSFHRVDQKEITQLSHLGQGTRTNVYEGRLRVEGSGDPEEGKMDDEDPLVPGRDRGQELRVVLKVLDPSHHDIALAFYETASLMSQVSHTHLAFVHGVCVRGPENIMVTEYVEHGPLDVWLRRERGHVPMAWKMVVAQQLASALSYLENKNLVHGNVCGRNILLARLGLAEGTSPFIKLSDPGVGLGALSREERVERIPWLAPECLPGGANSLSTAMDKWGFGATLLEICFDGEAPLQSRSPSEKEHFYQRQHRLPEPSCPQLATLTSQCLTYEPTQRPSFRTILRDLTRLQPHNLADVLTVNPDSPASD

| SMILES | Kd [1] | inhibition at 10 µM (Tyk2 kinase domain (DH1)) | inhibition at 10 µM (JAK2 kinase domain (JH1)) | IC50 [2] | IC50 [3] | Tyk2 JH1% Inhibition @ 10 μM (Tyk2 kinase domain (DH1)) | JAK2 JH1% Inhibition @ 10 μM (JAK2 kinase domain (JH1)) |
| --- | --- | --- | --- | --- | --- | --- | --- |
| CNc1cc(Nc2cccnc2OC)nc2c(C(=O)NCC(C)(C)CO)cnn12 [I-346] | < 0.2 nM | < 50% | < 50% | < 100 nM | > 2500 nM |  |  |
| [2H]C([2H])([2H])Oc1ncccc1Nc1cc(NC)n2ncc(C(=O)NCC(C)(C)CO)c2n1 [I-347] | < 0.2 nM | < 50% | < 50% | < 100 nM | > 50000 nM |  |  |
| CNc1cc(Nc2cccnc2OC2CC2)nc2c(C(=O)NCC(C)(C)CO)cnn12 [I-350] | < 0.2 nM | < 50% | < 50% | < 100 nM | > 50000 nM |  |  |
| CNc1cc(Nc2cccn([C@H]3CCCOC3)c2=O)nc2c(C(=O)NC3CC3)cnn12 [I-352] | < 0.2 nM | < 50% | < 50% | < 100 nM | > 50000 nM |  |  |
| CNc1cc(Nc2cccn([C@H]3CCCOC3)c2=O)nc2c(C(=O)NC3CCC3)cnn12 [I-354] | < 0.2 nM | < 50% | < 50% | < 100 nM | > 2500 nM |  |  |
| CNc1cc(Nc2cccn([C@H]3CC[C@@H](OC)CC3)c2=O)nc2c(C(=O)N[C@H]3C[C@H]3F)cnn12 [I-357] | < 0.2 nM | < 50% | < 50% | < 100 nM | > 2500 nM |  |  |
| CNc1cc(Nc2cccn([C@H]3CC[C@@](C)(OC)CC3)c2=O)nc2c(C(=O)NC3CC3)cnn12 [I-359] | < 0.2 nM | < 50% | < 50% | 100 to 500 nM | > 12500 nM |  |  |
| CNc1cc(Nc2cccn([C@H]3CC[C@@](C)(OC)CC3)c2=O)nc2c(C(=O)N[C@H]3C[C@H]3F)cnn12 [I-360] | < 0.2 nM | < 50% | < 50% | < 100 nM | > 50000 nM |  |  |
| CNc1cc(Nc2cccn([C@H]3CC[C@](C)(OC)CC3)c2=O)nc2c(C(=O)N[C@H]3C[C@H]3F)cnn12 [I-362] | < 0.2 nM | < 50% | < 50% | < 100 nM | > 50000 nM |  |  |
| CNc1cc(Nc2cccn(CC3CCCCO3)c2=O)nc2c(C(=O)N[C@H]3C[C@H]3F)cnn12 (some centres unmarked) [I-365] | < 0.2 nM | < 50% | < 50% | < 100 nM | > 50000 nM |  |  |
| CNc1cc(Nc2cccn(-c3nc(C)co3)c2=O)nc2c(C(=O)NC3CC3)cnn12 [I-368] | < 0.2 nM | < 50% | < 50% | < 100 nM | > 12500 nM |  |  |
| CNc1cc(Nc2cccn(-c3nc(C)co3)c2=O)nc2c(C(=O)N[C@H]3C[C@H]3F)cnn12 [I-369] | < 0.2 nM | < 50% | < 50% | < 100 nM | > 50000 nM |  |  |
| [2H]C([2H])([2H])Oc1ncccc1Nc1cc(NC)n2ncc(C(=O)N[C@H]3CC[C@@H]3O)c2n1 [I-373] | < 0.2 nM | < 50% | < 50% | < 100 nM | > 50000 nM |  |  |
| CNc1cc(Nc2cc(F)cn(-c3ccn(C)n3)c2=O)nc2c(C(=O)NC3CC3)cnn12 [I-378] | < 0.2 nM | < 50% | < 50% | < 100 nM | > 12500 nM |  |  |
| CNc1cc(Nc2cc(F)cn(-c3ccn(C)n3)c2=O)nc2c(C(=O)N[C@H]3C[C@H]3F)cnn12 [I-379] | < 0.2 nM | < 50% | < 50% | < 100 nM | > 2500 nM |  |  |
| CNc1cc(Nc2cc(F)cn(-c3cnn(C)c3)c2=O)nc2c(C(=O)NC3CC3)cnn12 [I-380] | < 0.2 nM | < 50% | < 50% | < 100 nM | > 12500 nM |  |  |
| CNc1cc(Nc2cc(F)cn(-c3cnn(C)c3)c2=O)nc2c(C(=O)N[C@H]3C[C@H]3F)cnn12 [I-381] | < 0.2 nM | < 50% | < 50% | < 100 nM | > 12500 nM |  |  |

| SMILES | Kd [1] | inhibition at 10 µM (Tyk2 kinase domain (DH1)) | inhibition at 10 µM (JAK2 kinase domain (JH1)) | IC50 [2] | IC50 [3] | Tyk2 JH1% Inhibition @ 10 μM (Tyk2 kinase domain (DH1)) | JAK2 JH1% Inhibition @ 10 μM (JAK2 kinase domain (JH1)) |
| --- | --- | --- | --- | --- | --- | --- | --- |
| CNc1cc(Nc2cc(F)cn(-c3cc(C)n(C)n3)c2=O)nc2c(C(=O)NC3CC3)cnn12 [I-384] | < 0.2 nM | < 50% | < 50% | < 100 nM | > 300 nM |  |  |
| CNc1cc(Nc2cc(F)cn(-c3cc(C)n(C)n3)c2=O)nc2c(C(=O)N[C@H]3C[C@H]3F)cnn12 [I-385] | < 0.2 nM | < 50% | < 50% | < 100 nM | > 2500 nM |  |  |
| CNc1cc(Nc2cccn(-c3nc(C)co3)c2=O)nc2c(C(=O)NC3CCC3)cnn12 [I-386] | < 0.2 nM | < 50% | < 50% | < 100 nM | > 50000 nM |  |  |
| CNc1cc(Nc2cccnc2OC)nc2c(C(=O)NC3CCC3O)cnn12 (centres unmarked) [I-390, N-(2-hydroxycyclobutyl)-5-((2-methoxypyridin-3-yl)amino)-7-(methylamino) pyrazolo[1,5-a]pyrimidine-3-carboxamide] | < 0.2 nM | < 50% | < 50% | < 100 nM | > 50000 nM |  |  |
| CNc1cc(Nc2cccnc2OC2CC2)nc2c(C(=O)NC3CCC3O)cnn12 (centres unmarked) [I-392, 5-((2-cyclopropoxypyridin-3-yl)amino)-N-(2-hydroxycyclobutyl)-7-(methylamino)pyrazolo[1,5-a]pyrimidine-3-carboxamide] | < 0.2 nM | < 50% | < 50% | < 100 nM | > 50000 nM |  |  |
| CNc1cc(Nc2cccn(C3CCC4(CC3)OCCO4)c2=O)nc2c(C(=O)NC3CC3)cnn12 [I-393] | < 0.2 nM | < 50% | < 50% | < 100 nM | > 12500 nM |  |  |
| CNc1cc(Nc2cccnc2OC)nc2c(C(=O)N[C@H]3CC[C@@H]3O)cnn12 [I-395] | < 0.2 nM |  |  | < 100 nM | > 12500 nM | A (percent inhibition at 10 μM lower than 50) | A (percent inhibition at 10 μM lower than 50) |
| CNc1cc(Nc2cccnc2OC)nc2c(C(=O)N[C@@H]3CC[C@H]3O)cnn12 [I-396] | < 0.2 nM | < 50% | < 50% | < 100 nM | > 50000 nM |  |  |
| CNc1cc(Nc2cccnc2OC2CC2)nc2c(C(=O)N[C@@H]3CC[C@@H]3O)cnn12 [I-401] | < 0.2 nM | < 50% | < 50% | < 100 nM | > 12500 nM |  |  |
| CNc1cc(Nc2cccn(-c3cnn(CC4CCOCC4)c3)c2=O)nc2c(C(=O)NC3CC3)cnn12 [I-406] | < 0.2 nM | < 50% | < 50% | 100 to 500 nM | > 12500 nM |  |  |
| CNc1cc(Nc2cccn(-c3cnn(CC4CCOCC4)c3)c2=O)nc2c(C(=O)N[C@H]3C[C@H]3F)cnn12 [I-407] | < 0.2 nM | < 50% | < 50% | < 100 nM | > 12500 nM |  |  |
| CCONC(=O)c1cnn2c(NC)cc(Nc3cccnc3OC)nc12 [I-409, N-ethoxy-5-((2-methoxypyridin-3-yl)amino)-7-(methylamino)pyrazolo[1,5-a]pyrimidine-3-carboxamide] | < 0.2 nM | < 50% | < 50% | < 100 nM | > 12500 nM |  |  |
| [2H]C([2H])([2H])Oc1ncccc1Nc1cc(NC)n2ncc(C(=O)N[C@@H]3CC[C@H]3O)c2n1 [I-410] | < 0.2 nM | < 50% | 50 to 70% | < 100 nM | > 12500 nM |  |  |
| [2H]C([2H])([2H])Oc1ncccc1Nc1cc(NC)n2ncc(C(=O)N[C@H]3CC[C@@H]3O)c2n1 [I-411] | < 0.2 nM |  |  | < 100 nM | > 50000 nM | A (percent inhibition at 10 μM lower than 50) | A (percent inhibition at 10 μM lower than 50) |
| CNc1cc(Nc2cccn(C[C@@H]3CCCCO3)c2=O)nc2c(C(=O)NC3CC3)cnn12 [I-413] | < 0.2 nM | < 50% | < 50% | < 100 nM | > 50000 nM |  |  |
| CNc1cc(Nc2cccn(C3CCC4(CC3)OCCO4)c2=O)nc2c(C(=O)N[C@@H]3C[C@@H]3F)cnn12 [I-415, N-((1R,2S)-2-fluorocyclopropyl)-7-(methylamino)-5-((2-oxo-1-(1,4-dioxaspiro 14.51 decan-8-yl)-1,2-dihydropyridin-3-yl)amino)pyrazolo[1,5-a]pyrimidine-3-carboxamide] | < 0.2 nM | < 50% | < 50% | < 100 nM | > 50000 nM |  |  |
| CNc1cc(Nc2cccnc2OC)nc2c(C(=O)N[C@@H]3CCC[C@H]3O)cnn12 [I-423, N-((1R,2R)-2-hydroxycyclopentyl)-5-((2-methoxypyridin-3-yl)amino)-7-(methylamino)pyrazolo[1,5-a]pyrimidine-3-carboxamide] | < 0.2 nM | < 50% | < 50% | < 100 nM | > 50000 nM |  |  |
